Measured values reported in ChEMBL document CHEMBL3045535, “Evaluation of lufenuron as a chemosterilant against fruit flies of the genus Anastrepha (Diptera: Tephritidae)” (2010).
Activity calls are given as the source filed them. The rule behind the calls is not given here.

Key:
Anastrepha ludens [1] = assay: Reduction of fertility in 7 days old adult of Anastrepha ludens assessed as reduction of egg hatching at 0.1 mg/g treated with diet measured after 5 days oviposition; type: functional; design: scale not given: the % may be the effect or the level left
Anastrepha striata [2] = assay: Reduction of fertility in 7 days old adult of Anastrepha striata assessed as reduction of egg hatching at 1 mg/g treated with diet measured after 5 days oviposition; type: functional; design: scale not given: the % may be the effect or the level left
Anastrepha ludens [3] = assay: Reduction of fertility in 7 days old adult of Anastrepha ludens assessed as reduction of egg hatching at 5 mg/g treated with diet measured after 9 days oviposition; type: functional; design: scale not given: the % may be the effect or the level left
Anastrepha serpentina [4] = assay: Reduction of fertility in 7 days old adult of Anastrepha serpentina assessed as reduction of egg hatching at 30 mg/g treated with diet measured after 9 days oviposition; type: functional; design: scale not given: the % may be the effect or the level left
Anastrepha ludens [5] = assay: Reduction of fertility in 7 days old adult of Anastrepha ludens assessed as reduction of egg hatching at 5 mg/g treated with diet measured after 1 day oviposition; type: functional; design: scale not given: the % may be the effect or the level left
Anastrepha obliqua [6] = assay: Effect on fecundity in 7 days old adult of Anastrepha obliqua at 0.1 to 30 mg/g treated with diet after 24 hr; type: functional, organism-based
Anastrepha serpentina [7] = assay: Reduction of fertility in 7 days old adult of Anastrepha serpentina assessed as reduction of egg hatching at 1 mg/g treated with diet measured after 11 days oviposition; type: functional; design: scale not given: the % may be the effect or the level left
Anastrepha obliqua [8] = assay: Reduction of fertility in 7 days old adult of Anastrepha obliqua assessed as reduction of egg hatching at 5 mg/g treated with diet measured after 11 days oviposition; type: functional; design: scale not given: the % may be the effect or the level left
Anastrepha obliqua [9] = assay: Reduction of fertility in 7 days old adult of Anastrepha obliqua assessed as reduction of egg hatching at 10 mg/g treated with diet measured after 3 days oviposition; type: functional; design: scale not given: the % may be the effect or the level left
Anastrepha serpentina [10] = assay: Reduction of fertility in 7 days old adult of Anastrepha serpentina assessed as reduction of egg hatching at 0.5 mg/g treated with diet measured after 3 days oviposition; type: functional; design: scale not given: the % may be the effect or the level left
Anastrepha serpentina [11] = assay: Effect on fecundity in 7 days old adult of Anastrepha serpentina at 0.1 to 30 mg/g treated with diet after 24 hr; type: functional, organism-based
Anastrepha striata [12] = assay: Effect on fertility in 7 days old adult female of Anastrepha striata at 30 mg/g treated with diet after 24 hr in presence of untreated adult male of Anastrepha striata; type: functional, organism-based
Anastrepha serpentina [13] = assay: Reduction of fertility in 7 days old adult of Anastrepha serpentina assessed as reduction of egg hatching at 30 mg/g treated with diet measured after 3 days oviposition; type: functional; design: scale not given: the % may be the effect or the level left
Anastrepha ludens [14] = assay: Reduction of fertility in 7 days old adult of Anastrepha ludens assessed as reduction of egg hatching at 30 mg/g treated with diet measured after 5 days oviposition; type: functional; design: scale not given: the % may be the effect or the level left
Anastrepha serpentina [15] = assay: Reduction of fertility in 7 days old adult of Anastrepha serpentina assessed as reduction of egg hatching at 10 mg/g treated with diet measured after 9 days oviposition; type: functional; design: scale not given: the % may be the effect or the level left
Anastrepha striata [16] = assay: Reduction of fertility in 7 days old adult of Anastrepha striata assessed as reduction of egg hatching at 5 mg/g treated with diet measured after 5 days oviposition; type: functional; design: scale not given: the % may be the effect or the level left
Anastrepha ludens [17] = assay: Reduction of fertility in 7 days old adult of Anastrepha ludens assessed as reduction of egg hatching at 30 mg/g treated with diet measured after 1 day oviposition; type: functional; design: scale not given: the % may be the effect or the level left
Anastrepha striata [18] = assay: Reduction of fertility in 7 days old adult of Anastrepha striata assessed as reduction of egg hatching at 1 mg/g treated with diet measured after 3 days oviposition; type: functional; design: scale not given: the % may be the effect or the level left
Anastrepha serpentina [19] = assay: Reduction of fertility in 7 days old adult of Anastrepha serpentina assessed as reduction of egg hatching at 0.5 mg/g treated with diet measured after 7 days oviposition; type: functional; design: scale not given: the % may be the effect or the level left
Anastrepha serpentina [20] = assay: Reduction of fertility in 7 days old adult of Anastrepha serpentina assessed as reduction of egg hatching at 30 mg/g treated with diet measured after 7 days oviposition; type: functional; design: scale not given: the % may be the effect or the level left
Anastrepha serpentina [21] = assay: Reduction of fertility in 7 days old adult of Anastrepha serpentina assessed as reduction of egg hatching at 1 mg/g treated with diet measured after 9 days oviposition; type: functional; design: scale not given: the % may be the effect or the level left
Anastrepha serpentina [22] = assay: Reduction of fertility in 7 days old adult of Anastrepha serpentina assessed as reduction of egg hatching at 10 mg/g treated with diet measured after 7 days oviposition; type: functional; design: scale not given: the % may be the effect or the level left
Anastrepha obliqua [23] = assay: Reduction of fertility in 7 days old adult of Anastrepha obliqua assessed as reduction of egg hatching at 1 mg/g treated with diet measured after 3 days oviposition; type: functional; design: scale not given: the % may be the effect or the level left
Anastrepha striata [24] = assay: Reduction of fertility in 7 days old adult of Anastrepha striata assessed as reduction of egg hatching at 0.1 mg/g treated with diet measured after 1 day oviposition; type: functional; design: scale not given: the % may be the effect or the level left
Anastrepha striata [25] = assay: Reduction of fertility in 7 days old adult of Anastrepha striata assessed as reduction of egg hatching at 0.1 mg/g treated with diet measured after 5 days oviposition; type: functional; design: scale not given: the % may be the effect or the level left
Anastrepha serpentina [26] = assay: Effect on fertility in 7 days old adult male of Anastrepha serpentina at 30 mg/g treated with diet after 24 hr in presence of untreated adult female of Anastrepha serpentina; type: functional, organism-based
Anastrepha obliqua [27] = assay: Reduction of fertility in 7 days old adult of Anastrepha obliqua assessed as reduction of egg hatching at 1 mg/g treated with diet measured after 9 days oviposition; type: functional; design: scale not given: the % may be the effect or the level left
Anastrepha striata [28] = assay: Reduction of fertility in 7 days old adult of Anastrepha striata assessed as reduction of egg hatching at 10 mg/g treated with diet measured after 11 days oviposition; type: functional; design: scale not given: the % may be the effect or the level left
Anastrepha striata [29] = assay: Effect on fertility in 7 days old adult male of Anastrepha striata at 30 mg/g treated with diet after 24 hr in presence of untreated adult female of Anastrepha striata; type: functional, organism-based
Anastrepha striata [30] = assay: Reduction of fertility in 7 days old adult of Anastrepha striata assessed as reduction of egg hatching at 5 mg/g treated with diet measured after 3 days oviposition; type: functional; design: scale not given: the % may be the effect or the level left
Anastrepha serpentina [31] = assay: Reduction of fertility in 7 days old adult of Anastrepha serpentina assessed as reduction of egg hatching at 1 mg/g treated with diet measured after 5 days oviposition; type: functional; design: scale not given: the % may be the effect or the level left
Anastrepha ludens [32] = assay: Reduction of fertility in 7 days old adult of Anastrepha ludens assessed as reduction of egg hatching at 10 mg/g treated with diet measured after 5 days oviposition; type: functional; design: scale not given: the % may be the effect or the level left
Anastrepha obliqua [33] = assay: Reduction of fertility in 7 days old adult of Anastrepha obliqua assessed as reduction of egg hatching at 0.5 mg/g treated with diet measured after 3 days oviposition; type: functional; design: scale not given: the % may be the effect or the level left
Anastrepha ludens [34] = assay: Reduction of fertility in 7 days old adult of Anastrepha ludens assessed as reduction of egg hatching at 0.5 mg/g treated with diet measured after 9 days oviposition; type: functional; design: scale not given: the % may be the effect or the level left
Anastrepha obliqua [35] = assay: Reduction of fertility in 7 days old adult of Anastrepha obliqua assessed as reduction of egg hatching at 10 mg/g treated with diet measured after 9 days oviposition; type: functional; design: scale not given: the % may be the effect or the level left
Anastrepha obliqua [36] = assay: Reduction of fertility in 7 days old adult of Anastrepha obliqua assessed as reduction of egg hatching at 5 mg/g treated with diet measured after 5 days oviposition; type: functional; design: scale not given: the % may be the effect or the level left
Anastrepha striata [37] = assay: Reduction of fertility in 7 days old adult of Anastrepha striata assessed as reduction of egg hatching at 10 mg/g treated with diet measured after 3 days oviposition; type: functional; design: scale not given: the % may be the effect or the level left
Anastrepha obliqua [38] = assay: Reduction of fertility in 7 days old adult of Anastrepha obliqua assessed as reduction of egg hatching at 0.5 mg/g treated with diet measured after 11 days oviposition; type: functional; design: scale not given: the % may be the effect or the level left
Anastrepha ludens [39] = assay: Reduction of fertility in 7 days old adult of Anastrepha ludens assessed as reduction of egg hatching at 0.5 mg/g treated with diet measured after 7 days oviposition; type: functional; design: scale not given: the % may be the effect or the level left
Anastrepha striata [40] = assay: Reduction of fertility in 7 days old adult of Anastrepha striata assessed as reduction of egg hatching at 0.1 mg/g treated with diet measured after 7 days oviposition; type: functional; design: scale not given: the % may be the effect or the level left
Anastrepha striata [41] = assay: Reduction of fertility in 7 days old adult of Anastrepha striata assessed as reduction of egg hatching at 30 mg/g treated with diet measured after 9 days oviposition; type: functional; design: scale not given: the % may be the effect or the level left

## O=C(NC(=O)c1c(F)cccc1F)Nc1cc(Cl)c(OC(F)(F)C(F)C(F)(F)F)cc1Cl (racemic) [LUFENURON]
Anastrepha ludens [1]
  Activity: 30.7%
Anastrepha striata [2]
  Activity: 4.5%
Anastrepha ludens [3]
  Activity: 30.7%
Anastrepha serpentina [4]
  Activity: 76.7%
Anastrepha ludens [5]
  Activity: 19.3%
Anastrepha obliqua [6]
  Activity: inactive
Anastrepha serpentina [7]
  Activity: 91.2%
Anastrepha obliqua [8]
  Activity: 0%
Anastrepha obliqua [9]
  Activity: 1.3%
Anastrepha serpentina [10]
  Activity: 87.3%
Anastrepha serpentina [11]
  Activity: Active
Anastrepha striata [12]
  Activity: inactive
Anastrepha serpentina [13]
  Activity: 72.3%
Anastrepha ludens [14]
  Activity: 4%
Anastrepha serpentina [15]
  Activity: 85.3%
Anastrepha striata [16]
  Activity: 2.7%
Anastrepha ludens [17]
  Activity: 3%
Anastrepha striata [18]
  Activity: 8%
Anastrepha serpentina [19]
  Activity: 86.7%
Anastrepha serpentina [20]
  Activity: 54.2%
Anastrepha serpentina [21]
  Activity: 95.6%
Anastrepha serpentina [22]
  Activity: 65.8%
Anastrepha obliqua [23]
  Activity: 0%
Anastrepha striata [24]
  Activity: 48.7%
Anastrepha striata [25]
  Activity: 60.7%
Anastrepha serpentina [26]
  Activity: inactive
Anastrepha obliqua [27]
  Activity: 0%
Anastrepha striata [28]
  Activity: 6%
Anastrepha striata [29]
  Activity: inactive
Anastrepha striata [30]
  Activity: 4.7%
Anastrepha serpentina [31]
  Activity: 71.8%
Anastrepha ludens [32]
  Activity: 2.7%
Anastrepha obliqua [33]
  Activity: 2.7%
Anastrepha ludens [34]
  Activity: 16%
Anastrepha obliqua [35]
  Activity: 0%
Anastrepha obliqua [36]
  Activity: 0%
Anastrepha striata [37]
  Activity: 10.7%
Anastrepha obliqua [38]
  Activity: 4%
Anastrepha ludens [39]
  Activity: 12%
Anastrepha striata [40]
  Activity: 72%
Anastrepha striata [41]
  Activity: 7.3%
